From US12275958B2, “Gut organoid and method for producing the same” (DAI NIPPON PRINTING CO., LTD., priority 2017, dated 2025)

Columns and labels:
[1] = system: hESC-derived gut organoid showing peristalsis-like movement; experiment: In vitro contractility of human gut organoids (motile); assay type: cell-based; conditions: 0.2 μM, aspect ratio from video; for frequency / rate of gut organoid contractile movement: days 80-90 in culture
Experimental: A single human embryonic stem cell (hESC)-derived gut organoid showing peristalsis-like movement (days 80-90 in culture) was treated with the peristaltic stimulator histamine (0.2 μM) and the cholinergic antagonist atropine sulfate (0.2 μM). Contractility responses were recorded using an inverted microscope. Image analysis software CL-Quant version 3.10 (Nikon Corporation) was used to visualize movements in the gut organoid. First, in each frame of the time-lapse images, the software was used to identify a specific region of the organoid. Second, the software fitted an ellipse to this region and calculated the ratio of the longest to shortest diameter to obtain an aspect ratio. Changes in the aspect ratios with time were plotted on the chart. Videos were recorded at 30 frames per second.

[2] = system: human gut organoids; experiment: In vitro β-Ala-Lys-AMCA uptake by human gut organoids; assay type: cell-based; conditions: 25 μM, 4 hours at 37° C., fluorescence
Experimental: Gut organoids grown in the differentiation induction medium 2 were washed with PBS and cultured in DMEM containing 25 μM fluorophore-conjugated dipeptide β-Ala-Lys-AMCA (Biotrend Chemicals) for 4 hours at 37° C. […] All sample images were recorded under standard conditions. For each concentration, 3 independent assays were performed.

SMILES: CN1[C@@H]2CC[C@H]1CC(OC(=O)C(CO)c1ccccc1)C2.CN1[C@@H]2CC[C@H]1CC(OC(=O)C(CO)c1ccccc1)C2.O=S(=O)(O)O (some centres unmarked) [atropine, atropine sulfate]
- contraction amplitude [1]: decreased
- frequency / rate of gut organoid contractile movement [1]: decreased

SMILES: NCCc1c[nH]cn1 [histamine]
- frequency / rate of gut organoid contractile movement [1]: increased

SMILES: Cc1c(CC(=O)NCCCC[C@H](NC(=O)CCN)C(=O)O)c(=O)oc2cc(N)ccc12 [β-Ala-Lys-AMCA, β-Ala-Lys-N(c)-7-amino-4-methylcoumarin-3-acetic acid]
- uptake (peptide absorption) of the fluorophore-conjugated dipeptide by gut organoids [2]: capable of uptake
- uptake (peptide absorption) of the fluorophore-conjugated dipeptide by gut organoids ([2]; listed as β-Ala-Lys-N(c)-7-amino-4-methylcoumarin-3-acetic acid): showed peptide absorption
